In ChEMBL document CHEMBL4706477, “Synthesis and Biological Evaluation of Calothrixins B and their Deoxygenated Analogues” (J Med Chem, 2018):
pIC50: −log10 of the molar value. Activity calls are given as the source filed them. The calls are words filed in the database; no cut-off is given here.

Columns and labels:
[1] = system: NCI-H460; assay: Induction of apoptosis in human NCI-H460 cells assessed as chromatin condensation at 2 uM incubated for 48 hrs by acridine orange/propidium iodide double staining based fluorescence microscopy analysis; type: functional, cell-based
[2] = system: HeLa; assay: cells; conditions: Homo sapiens, 48 h
Description: Antiproliferative activity against human HeLa cells assessed as reduction in cell viability incubated for 48 hrs by sulphorhodamine B assay

[3] = system: MCF7; assay: cells; conditions: Homo sapiens, MCF7, 48 h
Description: Antiproliferative activity against human MCF7 cells assessed as reduction in cell viability incubated for 48 hrs by sulphorhodamine B assay

[4] = system: HCT-116; assay: cells; conditions: Homo sapiens, HCT-116, 48 h
Description: Antiproliferative activity against human HCT-116 cells assessed as reduction in cell viability incubated for 48 hrs by sulphorhodamine B assay

[5] = system: HCT-116; assay: Induction of cell cycle arrest in human HCT-116 cells assessed as accumulation of cells at G1/S phase at 2 uM incubated for 48 hrs by propidium iodide staining based flow cytometry analysis; type: functional
[6] = target: T1, DNA topoisomerase 2-alpha (Homo sapiens, UniProt P11388); assay: Inhibition of recombinant human topoisomerase 2 assessed as decrease in relaxation of supercoiled pBlue-Script KS(+) plasmid DNA at < 100 uM incubated for 30 mins by ethidium bromide staining based gel electrophoresis method; conditions: dose microM <100, time 30.0 min
[7] = system: HCT-116; assay: Induction of apoptosis in human HCT-116 cells assessed as chromatin condensation at 2 uM incubated for 48 hrs by acridine orange/propidium iodide double staining based fluorescence microscopy analysis; type: functional, cell-based
[8] = target: T1, DNA topoisomerase 2-alpha; assay: Inhibition of recombinant human topoisomerase 2 assessed as decrease in relaxation of supercoiled pBlue-Script KS(+) plasmid DNA at 200 uM incubated for 30 mins by ethidium bromide staining based gel electrophoresis method
[9] = physchem; conditions: octanol/water
Description: Octanol/water partition coefficient, log P of the compound

[10] = system: MDA-MB-231; assay: cells; conditions: Homo sapiens, MDA-MB-231, 48 h
Description: Antiproliferative activity against human MDA-MB-231 cells assessed as reduction in cell viability incubated for 48 hrs by sulphorhodamine B assay

[11] = system: Jurkat; assay: cells; conditions: Homo sapiens, 48 h
Description: Antiproliferative activity against human Jurkat cells assessed as reduction in cell viability incubated for 48 hrs by sulphorhodamine B assay

[12] = system: Calf thymus DNA; assay: Binding affinity to calf thymus DNA assessed as hyperchromic shift measured at 432 nm at 3*10^-5 mol/L by double beam UV-Vis spectroscopic analysis; type: nucleic-acid assay; conditions: Bos taurus
[13] = system: Calf thymus DNA; assay: Binding affinity to calf thymus DNA assessed as hyperchromic shift measured at 362 nm at 3*10^-5 mol/L by double beam UV-Vis spectroscopic analysis; type: nucleic-acid assay; conditions: Bos taurus
[14] = system: HeLa; assay: Induction of apoptosis in human HeLa cells assessed as increase in cleaved PARP levels at 1 uM by Western blot analysis; type: functional, cell-based; conditions: time 6-24 hrs, TDE = time-dependent effect
[15] = system: NCI-H460; assay: Induction of apoptosis in human NCI-H460 cells assessed as increase in cleaved PARP protein levels at 3 uM incubated for 48 hrs by Western blot analysis; type: functional, cell-based
[16] = system: HCT-116; assay: Induction of apoptosis in human HCT-116 cells assessed as reduction in PARP protein levels at 3 uM incubated for 48 hrs by Western blot analysis; type: functional, cell-based
[17] = system: NCI-H460; assay: cells; conditions: Homo sapiens, NCI-H460, 48 h
Description: Antiproliferative activity against human NCI-H460 cells assessed as reduction in cell viability incubated for 48 hrs by sulphorhodamine B assay

[18] = system: Calf thymus DNA; assay: Binding affinity to calf thymus DNA assessed as hypochromic effect at 3*10^-5 mol/L by double beam UV-Vis spectroscopic analysis; type: nucleic-acid assay; conditions: Bos taurus
[19] = system: HCT-116; assay: Induction of apoptosis in human HCT-116 cells assessed as nuclear fragmentation at 2 uM incubated for 48 hrs by acridine orange/propidium iodide double staining based fluorescence microscopy analysis; type: functional, cell-based
[20] = system: Calf thymus DNA; assay: Binding affinity to calf thymus DNA assessed as hypsochromic shift absorbance measured at 284 nm at 3*10^-5 mol/L by double beam UV-Vis spectroscopic analysis; type: nucleic-acid assay; conditions: Bos taurus
[21] = system: HCT-116; assay: Induction of cell cycle arrest in human HCT-116 cells assessed as accumulation of cells at sub-G1 phase at 2 uM incubated for 48 hrs by propidium iodide staining based flow cytometry analysis; type: functional
[22] = system: HCT-116; assay: cells; conditions: Homo sapiens, HCT-116, 48 h; remark: listed apart in the source
Description: Antiproliferative activity against human HCT-116 p53-/- cells assessed as reduction in cell viability incubated for 48 hrs by sulphorhodamine B assay

[23] = system: HCT-116; assay: Induction of DNA damage in human HCT-116 cells assessed as tail length at 0.5 uM incubated for 48 hrs by alkaline Comet assay relative to control; type: functional, cell-based
[24] = physchem; conditions: octanol/buffer, pH 7.4
Description: Octanol/buffer distribution coefficient, log D of the compound at pH 7.4

[25] = system: U-251; assay: cells; conditions: Homo sapiens, U-251, 48 h
Description: Antiproliferative activity against human U-251 cells assessed as reduction in cell viability incubated for 48 hrs by sulphorhodamine B assay

[26] = system: SiHa; assay: cells; conditions: Homo sapiens, 48 h
Description: Antiproliferative activity against human SiHa cells assessed as reduction in cell viability incubated for 48 hrs by sulphorhodamine B assay

[27] = system: NCI-H460; assay: Induction of apoptosis in human NCI-H460 cells assessed as nuclear fragmentation at 2 uM incubated for 48 hrs by acridine orange/propidium iodide double staining based fluorescence microscopy analysis; type: functional, cell-based
[28] = system: HCT-116; assay: Anticlonogenic activity against human HCT-116 cells assessed as inhibition of colony formation at 5 uM incubated for 48 hrs followed by compound washout with PBS and measured after 14 days by crystal violet staining based analysis; type: functional, cell-based
[29] = system: NCI-H460; assay: Anticlonogenic activity against human NCI-H460 cells assessed as inhibition of colony formation at 5 uM incubated for 48 hrs followed by compound washout with PBS and measured after 14 days by crystal violet staining based analysis; type: functional, cell-based
[30] = system: Calf thymus DNA; assay: Binding affinity to calf thymus DNA assessed as hyperchromic effect measured at 299 nm at 3*10^-5 mol/L by double beam UV-Vis spectroscopic analysis; type: nucleic-acid assay; conditions: Bos taurus
[31] = system: HCT-116; assay: Induction of DNA damage in human HCT-116 cells assessed as tail length at 5 uM incubated for 48 hrs by alkaline Comet assay relative to control; type: functional, cell-based
[32] = system: HEK293; assay: Antiproliferative activity against human HEK293 cells assessed as reduction in cell viability incubated for 48 hrs by sulphorhodamine B assay; type: functional
[33] = system: HCT-116; assay: Induction of cell cycle arrest in human HCT-116 cells at 5 uM incubated for 20 hrs by propidium iodide staining based flow cytometry analysis; type: functional
[34] = system: A549; assay: Antiproliferative activity against human A549 cells assessed as reduction in cell viability incubated for 48 hrs by sulphorhodamine B assay; type: functional
[35] = target: T1, DNA topoisomerase 2-alpha; assay: Inhibition of recombinant human topoisomerase 2 assessed as decrease in relaxation of supercoiled pBlue-Script KS(+) plasmid DNA incubated for 30 mins by ethidium bromide staining based gel electrophoresis method
[36] = target: T1, DNA topoisomerase 2-alpha; assay: Inhibition of human topoisomerase 2 assessed as inhibition of etoposide-induced DNA cleavage complex formation by measuring linear DNA formation at 30 to 50 uM incubated for 30 mins using pRYG DNA as substrate by agarose gel electrophoresis analysis; conditions: dose 30-50 µM
[37] = system: HCT-116; assay: Induction of cell cycle arrest in human HCT-116 cells assessed as accumulation of cells at G2/M phase at 5 uM incubated for 48 hrs by propidium iodide staining based flow cytometry analysis; type: functional
[38] = system: Calf thymus DNA; assay: Binding affinity to calf thymus DNA assessed as DNA intercalation by measuring positive CD band at 20*10^-6 mol/L by CD spectroscopy; type: nucleic-acid assay; conditions: Bos taurus
[39] = target: T1, DNA topoisomerase 2-alpha; assay: Inhibition of recombinant human topoisomerase 2 assessed as decrease in relaxation of supercoiled pBlue-Script KS(+) plasmid DNA at 40 uM incubated for 30 mins by ethidium bromide staining based gel electrophoresis method relative to control
[40] = system: NCI-H460; assay: Induction of DNA damage in human NCI-H460 cells at 5 uM incubated for 48 hrs by alkaline Comet assay relative to control; type: functional, cell-based
[41] = target: T2, DNA topoisomerase 1 (Homo sapiens) (UniProt P11387); assay: Inhibition of human topoisomerase 1 assessed as induction of negative supercoiled DNA using relaxed pBlue-Script KS(+) plasmid DNA as substrate measured after 15 mins by agarose gel electrophoresis analysis; conditions: dose 60-100 µM
T2 sequence (whole entry): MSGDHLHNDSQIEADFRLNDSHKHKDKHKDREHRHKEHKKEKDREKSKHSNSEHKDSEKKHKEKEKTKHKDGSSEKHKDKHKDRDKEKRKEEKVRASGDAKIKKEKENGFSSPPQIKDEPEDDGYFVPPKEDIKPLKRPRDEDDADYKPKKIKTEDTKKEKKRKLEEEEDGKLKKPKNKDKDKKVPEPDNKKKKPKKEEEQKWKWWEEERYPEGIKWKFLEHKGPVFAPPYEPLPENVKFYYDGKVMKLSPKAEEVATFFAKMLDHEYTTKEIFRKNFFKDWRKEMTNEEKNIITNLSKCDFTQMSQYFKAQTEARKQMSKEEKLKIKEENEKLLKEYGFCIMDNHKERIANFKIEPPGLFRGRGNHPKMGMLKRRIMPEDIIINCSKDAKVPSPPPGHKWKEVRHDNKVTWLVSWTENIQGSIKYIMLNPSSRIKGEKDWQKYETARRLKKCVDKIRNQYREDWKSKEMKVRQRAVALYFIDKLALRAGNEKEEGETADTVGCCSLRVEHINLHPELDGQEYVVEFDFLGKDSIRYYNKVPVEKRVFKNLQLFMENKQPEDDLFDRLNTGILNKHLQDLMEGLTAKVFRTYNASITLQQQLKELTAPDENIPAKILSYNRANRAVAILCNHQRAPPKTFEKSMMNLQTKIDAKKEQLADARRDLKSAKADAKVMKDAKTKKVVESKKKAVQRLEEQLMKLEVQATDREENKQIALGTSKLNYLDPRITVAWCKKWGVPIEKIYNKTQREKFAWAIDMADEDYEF

[42] = system: Calf thymus DNA; assay: Binding affinity to calf thymus DNA assessed as DNA intercalation by measuring positive CD band at 26.6*10^-6 mol/L by CD spectroscopy; type: nucleic-acid assay; conditions: Bos taurus

T1 sequence (P11388 whole entry): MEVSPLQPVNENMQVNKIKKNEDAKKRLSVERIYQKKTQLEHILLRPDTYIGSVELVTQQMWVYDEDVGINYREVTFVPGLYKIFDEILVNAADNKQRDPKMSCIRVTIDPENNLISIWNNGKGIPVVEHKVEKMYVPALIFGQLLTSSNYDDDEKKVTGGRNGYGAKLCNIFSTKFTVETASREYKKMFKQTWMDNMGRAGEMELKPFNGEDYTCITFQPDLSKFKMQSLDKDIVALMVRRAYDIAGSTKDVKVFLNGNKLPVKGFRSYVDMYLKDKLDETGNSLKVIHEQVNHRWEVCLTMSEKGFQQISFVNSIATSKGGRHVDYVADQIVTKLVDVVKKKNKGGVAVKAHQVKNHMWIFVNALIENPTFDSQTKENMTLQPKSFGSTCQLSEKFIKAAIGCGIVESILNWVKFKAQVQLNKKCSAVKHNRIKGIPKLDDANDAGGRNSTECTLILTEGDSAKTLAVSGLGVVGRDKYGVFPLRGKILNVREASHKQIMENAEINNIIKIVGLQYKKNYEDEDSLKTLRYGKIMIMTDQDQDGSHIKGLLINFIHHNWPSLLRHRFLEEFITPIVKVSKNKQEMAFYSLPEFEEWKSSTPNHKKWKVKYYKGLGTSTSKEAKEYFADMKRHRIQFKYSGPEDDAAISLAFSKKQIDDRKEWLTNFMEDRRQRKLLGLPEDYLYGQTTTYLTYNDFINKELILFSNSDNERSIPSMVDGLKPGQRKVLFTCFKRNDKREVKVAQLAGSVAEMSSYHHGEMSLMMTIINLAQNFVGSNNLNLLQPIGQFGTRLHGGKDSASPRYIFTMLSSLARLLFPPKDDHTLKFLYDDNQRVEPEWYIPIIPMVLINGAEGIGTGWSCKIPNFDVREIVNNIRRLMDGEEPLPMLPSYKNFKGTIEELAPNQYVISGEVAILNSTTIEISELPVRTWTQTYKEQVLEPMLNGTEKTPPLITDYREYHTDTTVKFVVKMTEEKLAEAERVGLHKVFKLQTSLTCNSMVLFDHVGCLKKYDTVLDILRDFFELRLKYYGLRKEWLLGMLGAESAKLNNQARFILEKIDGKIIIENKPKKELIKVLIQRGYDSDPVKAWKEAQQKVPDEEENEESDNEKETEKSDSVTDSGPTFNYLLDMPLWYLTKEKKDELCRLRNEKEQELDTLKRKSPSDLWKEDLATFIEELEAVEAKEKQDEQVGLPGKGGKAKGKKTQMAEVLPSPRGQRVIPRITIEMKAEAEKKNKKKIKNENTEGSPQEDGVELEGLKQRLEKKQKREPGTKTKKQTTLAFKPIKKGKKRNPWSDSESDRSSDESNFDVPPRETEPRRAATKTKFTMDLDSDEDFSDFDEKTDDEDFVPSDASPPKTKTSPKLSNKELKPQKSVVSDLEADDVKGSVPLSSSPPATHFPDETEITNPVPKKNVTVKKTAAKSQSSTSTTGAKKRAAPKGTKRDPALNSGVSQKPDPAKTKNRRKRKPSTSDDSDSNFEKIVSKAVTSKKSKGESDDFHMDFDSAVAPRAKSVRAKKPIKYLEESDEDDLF

For `O=C1c2c[n+]([O-])c3ccccc3c2C(=O)c2[nH]c3ccccc3c21` [CALOTHRIXIN A], the Activity [1] was “Active”, the GI50 [2] was 80 nM and the GI50 [3] was 30 nM. For the same compound, the GI50 [4] was 110 nM, the Activity [5] was “Active” and the inhibition [6] was “inactive”. The Activity [7] was “Active”, the inhibition [8] was “Active” and the logP [9] was 1.32. For the same compound, the GI50 [10] was 40 nM, the GI50 [11] was 70 nM and the Activity [12] was 13%. The Activity [13] was 12%, the Activity [14] was “Tde” and the Activity [15] was “Active”. The Activity [16] was “Active”, the GI50 [17] was 220 nM and the Activity [18] was 13%. The Activity [19] was “Active”, the Activity [20] was 10 nm and the Activity [21] was “Active”. For the same compound, the GI50 [22] was 80 nM, the Activity [23] was “Active” and the logD [24] was 1.02. The GI50 [25] was 80 nM, the GI50 [26] was 50 nM and the Activity [27] was “Active”.
With `c1ccc2c(c1)ncc1cc3c(cc12)[nH]c1ccccc13` the GI50 [2] was 410 nM, the inhibition [28] was “inactive” and the inhibition [29] was “inactive”. The GI50 [3] was over 4000 nM, the GI50 [4] was 11500 nM and the Activity [30] was 30%. The inhibition [8] was 100%, the logP [9] was -1.25 and the GI50 [10] was over 4000 nM. The GI50 [11] was 4000 nM, the Activity [31] was “inactive” and the GI50 [17] was 5500 nM. The GI50 [32] was over 4000 nM, the Activity [33] was “inactive” and the GI50 [34] was over 4000 nM. The pIC50 [35] was 4.63, the IC90 [35] was 41500 nM and the inhibition [35] was “Dose-dependent effect”. For the same compound, the inhibition [36] was “Active”, the Activity [37] was “inactive” and the Activity [38] was “Active”. For the same compound, the logD [24] was -1.55, the GI50 [25] was over 4000 nM and the inhibition [39] was 97%. For the same compound, the Activity [40] was “inactive”, the GI50 [26] was over 4000 nM and the Activity [41] was “Dose-dependent effect”. For the same compound, the Activity [42] was “Active”.
